From US20020026052A1, “3-cyanoquinolines, 3-cyano-1,6-naphthyridines, and 3-cyano-1,7-naphthyridines as protein kinase inhibitors” (American Home Products Corporation, priority 2000, published 2002)
“And” between values parts separate entries of the source, which are not always exact repeats. Identical values can stand only once.

Columns and labels:
[1] = biological target: Rat2 fibroblasts stably transformed with v-Src/Hu c-Src fusion gene (Homo sapiens, UniProt P12931, cells depend on it, form not given); experiment: Anchorage Independent Src-transformed Fibroblast Proliferation Assay; assay type: cell-based, Rat; conditions: suspension growth, MTS reagent on Day 5; read-out: anch-indep src-tx fib IC50
Chain of Rat2 fibroblasts stably transformed with v-Src/Hu c-Src fusion gene (P12931 whole entry, change not shown, the tested form may be a part): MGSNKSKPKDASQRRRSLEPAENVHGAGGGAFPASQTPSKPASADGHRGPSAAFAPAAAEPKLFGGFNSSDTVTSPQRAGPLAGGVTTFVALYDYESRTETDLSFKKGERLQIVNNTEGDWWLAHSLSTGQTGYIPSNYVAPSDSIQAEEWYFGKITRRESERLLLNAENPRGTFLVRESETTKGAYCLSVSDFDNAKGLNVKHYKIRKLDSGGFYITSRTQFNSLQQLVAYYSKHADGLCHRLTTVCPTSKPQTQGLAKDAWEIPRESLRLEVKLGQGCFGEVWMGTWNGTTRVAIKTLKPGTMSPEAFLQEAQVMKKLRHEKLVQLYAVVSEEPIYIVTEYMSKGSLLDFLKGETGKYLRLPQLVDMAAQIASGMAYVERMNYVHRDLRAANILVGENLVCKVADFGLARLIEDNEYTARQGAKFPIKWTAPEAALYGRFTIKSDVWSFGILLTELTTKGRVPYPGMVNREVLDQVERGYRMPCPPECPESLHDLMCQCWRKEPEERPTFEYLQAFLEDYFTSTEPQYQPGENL
Description: Anchorage Independent Src-transformed Fibroblast Proliferation Assay
Rat2 fibroblasts stably transformed with a plasmid containing a CMV promotor controlled v-Src/Hu c-Src fusion gene in which the catalytic domain of human c-Src was inserted in place of the v-Src catalytic domain in the v-Src gene are used for the measurement of src dependent suspension growth. […] Multiple entries for a given compound indicate that it was tested multiple times.

For `COc1cc(Nc2c(C#N)cnc3cc(-c4ccc(CN5CCC[C@@H]5C(N)=O)cc4)ccc23)c(Cl)cc1Cl` [Example 84, (2 R)-1-{4-[3-cyano-4-(2,4-dichloro-5-methoxyanilino)-7-quinolinyl]benzyl}-2-pyrrolidinecarboxamide], the melting point was 180 to 182 °C and the GI50 [1] was 0.77 µM.
`COc1cc(Nc2c(C#N)cnc3cc(-c4ccc(CN(CCO)CCO)o4)ccc23)c(Cl)cc1Cl` [Example 76, 7-(5-{[Bis(2-hydroxyethyl)amino]methyl}-2-furyl)-4-(2,4-dichloro-5-methoxyanilino)-3-quinolinecarbonitrile] showed a melting point of 155 to 160 °C and a GI50 [1] of 1.1 µM.
`COc1cc(Nc2c(C#N)cnc3cc(-c4ccc(CCl)cc4)ccc23)c(Cl)cc1Cl` [Example 102, 7-[4-(Chloromethyl)phenyl]-4-(2,4-dichloro-5-methoxyanilino)-3-quinolinecarbonitrile] showed a melting point of 236 to 239 °C and a GI50 [1] of 7.5 µM.
In the case of `COc1cc(Nc2c(C#N)cnc3cc(-c4cnc(N5CCOCC5)nc4)ccc23)c(Cl)cc1Cl` [Example 186, 4-(2,4-Dichloro-5-methoxyanilino)-7-[2-(4-morpholinyl)-5-pyrimidinyl]-3-quinolinecarbonitrile], the melting point is reported as over 260 °C and the GI50 [1] is reported as over 10 µM.
With `COC(=O)C1CCN(Cc2ccc(-c3ccc4c(Nc5cc(OC)c(Cl)cc5Cl)c(C#N)cnc4c3)nc2)CC1` [Example 176, 1-{6-[3-Cyano-4-(2,4-dichloro-5-methoxyphenylamino)-quinolin-7-yl]-pyridin-3-ylmethyl}-piperidine-4-carboxylic acid methyl ester] the melting point was 186 to 188 °C and the GI50 [1] was 0.09 µM.
In the case of `COc1cc(Nc2c(C#N)cnc3cc(-c4csc(CN5CCOCC5)c4)ccc23)c(C)cc1Cl` [Example 167, 4-(4-Chloro-5-methoxy-2-methylanilino)-7-[5-(4-morpholinylmethyl)-3-thienyl]-3-quinolinecarbonitrile], the melting point is reported as > 108 °C (dec.) and the GI50 [1] is reported as 0.9 µM.
`COc1cc(Nc2c(C#N)cnc3cc(-c4cc5ccccc5o4)ccc23)c(Cl)cc1Cl` [Example 119, 7-(1-Benzofuran-2-yl)-4-(2,4-dichloro-5-methoxyanilino)-3-quinolinecarbonitrile] showed a melting point of 276 to 277 °C and a GI50 [1] of over 10 µM.
In the case of `COc1cc(Nc2c(C#N)cnc3cc(-c4csc(CN5CCOCC5)c4)c(OC)cc23)c(Cl)cc1Cl` [Example 36, 4-(2,4-Dichloro-5-methoxyanilino)-6-methoxy-7-[5-(4-morpholinylmethyl)-3-thienyl]-3-quinolinecarbonitrile], the melting point is reported as 148 to 150 °C and the GI50 [1] is reported as 0.16 µM and 0.2 µM.
Work on `COc1cc(Nc2c(C#N)cnc3cc(-c4cnc(C=O)n4C)c(OC)cc23)c(Cl)cc1Cl` [Example 228, 4-(2,4-Dichloro-5-methoxyanilino)-7-(2-formyl-1-methyl-1H-imidazol-5-yl)-6-methoxy-3-quinolinecarbonitrile] yielded a melting point of 141 to 144 °C and a GI50 [1] of over 10 µM.
In the case of `COc1ccc(Cl)c(Nc2c(C#N)cnc3cc(-c4ccc(CN5CCOCC5)cc4)ccc23)c1` [Example 236, 4-(2-Chloro-5-methoxyanilino)-7-[4-(4-morpholinylmethyl)phenyl]-3-quinolinecarbonitrile], the melting point is reported as 160 to 163 °C and the GI50 [1] is reported as 0.57 µM.
Work on `COc1cc(Nc2c(C#N)cnc3cc(-c4ncccc4CN4CCOCC4)ccc23)c(Cl)cc1Cl` [Example 111, 4-(2,4-Dichloro-5-methoxyanilino)-7-[3-(morpholin-4-ylmethyl)-pyridin-2-yl]-3-quinolinecarbonitrile] yielded a melting point of 151 to 154 °C and a GI50 [1] of over 10 µM.
With `COc1cc(Nc2c(C#N)cnc3cc(-c4ccc(C5OCCO5)s4)ccc23)c(Cl)cc1Cl` [Example 51, 4-(2,4-dichloro-5-methoxyanilino)-7-[5-(1,3-dioxolan-2-yl)-2-thienyl]-3-quinolinecarbonitrile] the melting point was 174 to 177 °C (dec.) and the GI50 [1] was 0.42 µM.
